Experimental data reported in ChEMBL document CHEMBL1201862, “PubChem BioAssay data set” (2004).
Calls of active or inactive are those of the source.

Legend:
[1] = target: T1, Voltage-gated N-type calcium channel alpha-1B subunit/Amyloid beta A4 precursor protein-binding family A member 1 (Homo sapiens, UniProt Q00975+Q02410); format: protein assay
[2] = target: T1, Voltage-gated N-type calcium channel alpha-1B subunit/Amyloid beta A4 precursor protein-binding family A member 1; format: protein assay; remark: listed apart in the source
[3] = HEp-2 cell cytotoxicity, dose response, cytotoxicity control for RSV inhibitor project, HTS (AID 2410); format: functional; settings: human respiratory syncytial virus
Trypsin = Trypsin (Sus scrofa, UniProt P00761); test: porcine trypsin inhibitors, dose response, selectivity assay for Rce1 protease inhibitor project, biochemical, quenched peptide fluorescence, cherry-pick (AID 488789)
CAAX prenyl protease 1 = CAAX prenyl protease 1 (Saccharomyces cerevisiae S288c, UniProt P47154); test: Ste24 protease inhibitors, dose response, biochemical, S. cerevisiae, plate reader, cherry-pick (AID 488815)
CAAX prenyl protease 2 [4] = target: T2, CAAX prenyl protease 2 (Saccharomyces cerevisiae S288c, UniProt Q03530); format: biochemical
T2 sequence (Q03530 whole entry): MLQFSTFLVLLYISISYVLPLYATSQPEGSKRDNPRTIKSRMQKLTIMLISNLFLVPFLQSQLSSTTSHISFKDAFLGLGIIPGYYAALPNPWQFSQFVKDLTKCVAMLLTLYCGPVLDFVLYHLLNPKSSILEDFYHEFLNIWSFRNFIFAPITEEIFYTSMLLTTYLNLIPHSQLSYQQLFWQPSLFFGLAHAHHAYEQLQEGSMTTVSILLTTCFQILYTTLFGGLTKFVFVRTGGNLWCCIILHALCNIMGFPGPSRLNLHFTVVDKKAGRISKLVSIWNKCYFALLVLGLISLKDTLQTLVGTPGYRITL

CAAX prenyl protease 2 [5] = target: T3, CAAX prenyl protease 2 (Homo sapiens, UniProt Q9Y256); test: human Rce1 protease inhibitors, dose response, biochemical, yeast membranes, quenched-peptide fluorescence, cherry-pick (AID 588849)
T3 sequence (Q9Y256 whole entry): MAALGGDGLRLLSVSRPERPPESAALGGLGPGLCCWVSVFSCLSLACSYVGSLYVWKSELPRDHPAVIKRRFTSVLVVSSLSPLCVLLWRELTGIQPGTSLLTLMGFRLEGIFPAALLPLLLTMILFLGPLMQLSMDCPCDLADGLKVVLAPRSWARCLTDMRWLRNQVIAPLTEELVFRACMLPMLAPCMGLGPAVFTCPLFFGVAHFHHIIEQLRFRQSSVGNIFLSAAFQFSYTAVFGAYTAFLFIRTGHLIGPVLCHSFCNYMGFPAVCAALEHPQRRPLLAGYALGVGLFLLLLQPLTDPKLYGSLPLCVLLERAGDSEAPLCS

Cytochrome P450 2C19 = Cytochrome P450 2C19 (Homo sapiens, UniProt P33261); test: Cytochrome panel assay with activity outcomes. Panel member name: p450-cyp2c19 Compounds with AC50 equal or less than 10 uM are considered active; format: functional; settings: read-out: AC50
Cytochrome P450 2D6 = Cytochrome P450 2D6 (Homo sapiens, UniProt P10635);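 note: CYP2D6 member of a cytochrome P450 panel assay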
Keap1/Nrf2 = Keap1/Nrf2 (Homo sapiens, UniProt Q14145); test: Keap1-Nrf2 protein-protein interaction inhibitors, dose response, biochemical, fluorescence polarization, cherry-picked samples (AID 588683)
[6] = target: T4, RNA-binding protein pos-1 (Caenorhabditis elegans, UniProt G5EF15); test: inhibitors of POS-1/mex-3 RNA binding, dose response, biochemical, fluorescence polarization (AID 1964);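 note: purified POS-1 fused to maltose binding protein made in E. coli; potency of compounds blocking POS-1 binding to fluorescent RNA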
T4 sequence (G5EF15 whole entry): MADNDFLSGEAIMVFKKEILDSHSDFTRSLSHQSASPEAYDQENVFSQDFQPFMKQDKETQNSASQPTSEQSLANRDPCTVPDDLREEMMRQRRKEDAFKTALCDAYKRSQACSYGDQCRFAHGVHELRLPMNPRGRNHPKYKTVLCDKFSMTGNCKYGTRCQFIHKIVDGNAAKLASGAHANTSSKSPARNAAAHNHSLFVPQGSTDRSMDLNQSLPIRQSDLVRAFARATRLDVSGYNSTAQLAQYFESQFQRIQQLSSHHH

[7] = target: T5, Zinc finger protein mex-5 (Caenorhabditis elegans, UniProt Q9XUB2); test: MEX-5/TCR-2 RNA interaction inhibitors, dose response, biochemical, C. elegans, fluorescence polarization (AID 1960)
T5 sequence (Q9XUB2 whole entry): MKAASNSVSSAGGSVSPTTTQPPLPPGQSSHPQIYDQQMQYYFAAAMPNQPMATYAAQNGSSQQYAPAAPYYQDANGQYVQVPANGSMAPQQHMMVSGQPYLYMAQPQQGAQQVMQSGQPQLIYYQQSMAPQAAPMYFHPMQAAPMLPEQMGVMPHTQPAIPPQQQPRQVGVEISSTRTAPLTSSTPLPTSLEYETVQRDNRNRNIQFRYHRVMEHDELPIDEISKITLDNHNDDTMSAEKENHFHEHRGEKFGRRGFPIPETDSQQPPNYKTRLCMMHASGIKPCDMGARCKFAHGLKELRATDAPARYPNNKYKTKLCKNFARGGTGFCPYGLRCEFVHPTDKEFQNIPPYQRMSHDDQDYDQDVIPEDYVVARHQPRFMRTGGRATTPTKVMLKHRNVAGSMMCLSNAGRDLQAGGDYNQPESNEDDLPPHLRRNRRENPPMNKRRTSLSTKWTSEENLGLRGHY

Cytochrome P450 3A4 = Cytochrome P450 3A4 (Homo sapiens, UniProt P08684);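 note: CYP3A4 tested as one member of a cytochrome P450 panel screen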
Beta-galactosidase = Beta-galactosidase (Escherichia coli, UniProt Q8VNN2); format: functional
[8] = target: T6, Delta-type opioid receptor (Homo sapiens, UniProt P41143); test: HTS Image-Based Screen for Antagonists of the DOR Receptor. [Related pubchem assays (depositor defined):AID1777, AID1785, AID1786, AID2133]; format: functional
Mu-type opioid receptor = Mu-type opioid receptor (Homo sapiens, UniProt P35372); test: HTS Image-Based Screen for Agonists of the MOR Receptor. [Related pubchem assays (depositor defined):AID1777, AID1785, AID1786, AID2133]; format: functional;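 note: imaging of beta-arrestin GFP recruitment into spots after receptor activation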
[9] = target: T7, Kappa-type opioid receptor (Homo sapiens, UniProt P41145); format: functional
H9c2 = test: cells; format: functional, cell-based; settings: Rattus norvegicus, H9c2, Myocardium;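 note: confirmatory concentration-response retest of ultra-high-throughput screening hits for modulation of myocardial damage; cell death induced by hydrogen peroxide oxidative stress; compound pretreatment for 60 min then peroxide exposure for 2 h; potency is for protecting the cells against peroxide damage rather than for killing them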
[10] = target: T7, Kappa-type opioid receptor; format: functional; remark: listed apart in the source
[11] = target: T6, Delta-type opioid receptor; test: HTS Image-Based Screen for Agonists of the DOR Receptor. [Related pubchem assays (depositor defined):AID1777, AID1786, AID2133]; format: functional
SUMO-activating enzyme = SUMO-activating enzyme (Homo sapiens, UniProt Q9UBT2); test: SUMOylation inhibitor hit validation, confirmation, SUMOylation inhibitor project, biochemical, AlphaScreen (AID 2018); format: functional
[12] = growth suppression of PTEN-null colon cells, dose response, cell-based, HCT116 PTEN knockout (AID 1047); format: functional;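 note: HCT116 colon tumor cells with PTEN knocked out; cells exposed to compound for 60 hours before readout; potency for loss of cell viability measured by luminescence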
[13] = THP-1 cell cytotoxicity, dose response, cytotoxicity control for non-replicating M. tuberculosis project (AID 489025); format: functional
[14] = Vero E6 cell cytotoxicity, dose response, cytotoxicity control for non-replicating M. tuberculosis project, secondary assay (AID 492998); format: functional, VeroE6; settings: Vero C1008
[15] = Luminescence Cell-Based Dose Response HTS to Identify Inhibitors of 5'UTR Stem-Loop Driven Prion Protein mRNA Translation in H4 Neuroglioblastoma Cells. [Related pubchem assays: 1827 (Project Summary), 1813 (Primary HTS)]; format: functional
[16] = inhibitors of firefly luciferase expression or activity, dose response, H4 neuroglioma cells, luminescence (AID 1990); format: functional, cell-based
[17] = inhibitors of SNCA 5'UTR-driven reporter translation, confirmation, H4 neuroglioma cells, luminescence (AID 1988); format: functional, cell-based
[18] = target: T8, Tyrosine-protein phosphatase non-receptor type 22 (Homo sapiens, UniProt Q9Y2R2); test: SAR LYP1 Fluorescent Assay using pCAP substrate for In Vitro dose response studies - Set 2. [Related pubchem assays (depositor defined):AID1779, AID1784, AID2135, AID449727]; format: functional
T8 sequence (Q9Y2R2 whole entry): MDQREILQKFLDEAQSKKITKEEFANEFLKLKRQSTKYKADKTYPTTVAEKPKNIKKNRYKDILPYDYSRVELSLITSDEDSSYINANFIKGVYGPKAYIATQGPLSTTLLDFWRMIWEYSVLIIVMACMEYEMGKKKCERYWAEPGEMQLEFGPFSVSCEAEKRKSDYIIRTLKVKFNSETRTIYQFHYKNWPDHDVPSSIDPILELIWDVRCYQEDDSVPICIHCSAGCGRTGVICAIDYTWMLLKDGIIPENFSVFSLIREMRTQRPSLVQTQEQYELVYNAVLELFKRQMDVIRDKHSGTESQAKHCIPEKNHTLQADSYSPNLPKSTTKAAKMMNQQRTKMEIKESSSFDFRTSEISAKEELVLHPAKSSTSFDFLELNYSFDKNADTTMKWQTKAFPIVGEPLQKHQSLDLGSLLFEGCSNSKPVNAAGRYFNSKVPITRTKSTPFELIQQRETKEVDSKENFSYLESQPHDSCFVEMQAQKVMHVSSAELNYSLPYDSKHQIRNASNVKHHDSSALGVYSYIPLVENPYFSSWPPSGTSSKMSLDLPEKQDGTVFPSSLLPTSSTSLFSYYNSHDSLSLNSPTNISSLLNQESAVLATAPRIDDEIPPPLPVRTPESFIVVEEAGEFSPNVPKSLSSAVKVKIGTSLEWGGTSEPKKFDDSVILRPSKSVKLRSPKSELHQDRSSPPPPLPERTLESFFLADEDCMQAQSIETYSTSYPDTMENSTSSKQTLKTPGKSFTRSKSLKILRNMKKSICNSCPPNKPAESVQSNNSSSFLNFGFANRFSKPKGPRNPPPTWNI

[19] = target: T9, Tyrosine-protein phosphatase non-receptor type 7 (Homo sapiens, UniProt P35236); test: HePTP (PTPN7) phosphatase inhibitor potency, SAR follow-up, biochemical, set 2 (AID 449736); format: functional
T9 sequence (P35236 whole entry): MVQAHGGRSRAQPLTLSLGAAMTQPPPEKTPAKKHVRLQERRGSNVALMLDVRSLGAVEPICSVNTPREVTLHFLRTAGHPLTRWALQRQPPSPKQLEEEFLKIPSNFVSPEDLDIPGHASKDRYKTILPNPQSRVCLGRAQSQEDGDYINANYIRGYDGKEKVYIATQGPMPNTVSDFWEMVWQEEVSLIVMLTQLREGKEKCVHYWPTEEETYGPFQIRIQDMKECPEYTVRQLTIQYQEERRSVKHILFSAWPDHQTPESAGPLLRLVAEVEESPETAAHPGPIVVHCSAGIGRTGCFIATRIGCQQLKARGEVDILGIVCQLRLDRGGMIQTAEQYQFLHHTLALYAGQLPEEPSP

[20] = target: T8, Tyrosine-protein phosphatase non-receptor type 22; test: LYP (PTPN22) phosphatase inhibitor potency, SAR follow-up, biochemical, pCAP fluorogenic substrate, fluorescence, set 3 (AID 449727); format: functional
[21] = target: T8, Tyrosine-protein phosphatase non-receptor type 22; test: SAR LYP1 Fluorescent Assay using OMFP substrate for In Vitro dose response studies - Set 2. [Related pubchem assays (depositor defined):AID1779, AID1784, AID2140, AID449726, AID488869]; format: functional
[22] = target: T8, Tyrosine-protein phosphatase non-receptor type 22; test: SAR LYP1 Fluorescent Assay using OMFP substrate for In Vitro dose response studies - Set 3. [Related pubchem assays (depositor defined):AID1779, AID1784, AID2140, AID2686]; format: functional

T1 sequence (Q00975 whole entry): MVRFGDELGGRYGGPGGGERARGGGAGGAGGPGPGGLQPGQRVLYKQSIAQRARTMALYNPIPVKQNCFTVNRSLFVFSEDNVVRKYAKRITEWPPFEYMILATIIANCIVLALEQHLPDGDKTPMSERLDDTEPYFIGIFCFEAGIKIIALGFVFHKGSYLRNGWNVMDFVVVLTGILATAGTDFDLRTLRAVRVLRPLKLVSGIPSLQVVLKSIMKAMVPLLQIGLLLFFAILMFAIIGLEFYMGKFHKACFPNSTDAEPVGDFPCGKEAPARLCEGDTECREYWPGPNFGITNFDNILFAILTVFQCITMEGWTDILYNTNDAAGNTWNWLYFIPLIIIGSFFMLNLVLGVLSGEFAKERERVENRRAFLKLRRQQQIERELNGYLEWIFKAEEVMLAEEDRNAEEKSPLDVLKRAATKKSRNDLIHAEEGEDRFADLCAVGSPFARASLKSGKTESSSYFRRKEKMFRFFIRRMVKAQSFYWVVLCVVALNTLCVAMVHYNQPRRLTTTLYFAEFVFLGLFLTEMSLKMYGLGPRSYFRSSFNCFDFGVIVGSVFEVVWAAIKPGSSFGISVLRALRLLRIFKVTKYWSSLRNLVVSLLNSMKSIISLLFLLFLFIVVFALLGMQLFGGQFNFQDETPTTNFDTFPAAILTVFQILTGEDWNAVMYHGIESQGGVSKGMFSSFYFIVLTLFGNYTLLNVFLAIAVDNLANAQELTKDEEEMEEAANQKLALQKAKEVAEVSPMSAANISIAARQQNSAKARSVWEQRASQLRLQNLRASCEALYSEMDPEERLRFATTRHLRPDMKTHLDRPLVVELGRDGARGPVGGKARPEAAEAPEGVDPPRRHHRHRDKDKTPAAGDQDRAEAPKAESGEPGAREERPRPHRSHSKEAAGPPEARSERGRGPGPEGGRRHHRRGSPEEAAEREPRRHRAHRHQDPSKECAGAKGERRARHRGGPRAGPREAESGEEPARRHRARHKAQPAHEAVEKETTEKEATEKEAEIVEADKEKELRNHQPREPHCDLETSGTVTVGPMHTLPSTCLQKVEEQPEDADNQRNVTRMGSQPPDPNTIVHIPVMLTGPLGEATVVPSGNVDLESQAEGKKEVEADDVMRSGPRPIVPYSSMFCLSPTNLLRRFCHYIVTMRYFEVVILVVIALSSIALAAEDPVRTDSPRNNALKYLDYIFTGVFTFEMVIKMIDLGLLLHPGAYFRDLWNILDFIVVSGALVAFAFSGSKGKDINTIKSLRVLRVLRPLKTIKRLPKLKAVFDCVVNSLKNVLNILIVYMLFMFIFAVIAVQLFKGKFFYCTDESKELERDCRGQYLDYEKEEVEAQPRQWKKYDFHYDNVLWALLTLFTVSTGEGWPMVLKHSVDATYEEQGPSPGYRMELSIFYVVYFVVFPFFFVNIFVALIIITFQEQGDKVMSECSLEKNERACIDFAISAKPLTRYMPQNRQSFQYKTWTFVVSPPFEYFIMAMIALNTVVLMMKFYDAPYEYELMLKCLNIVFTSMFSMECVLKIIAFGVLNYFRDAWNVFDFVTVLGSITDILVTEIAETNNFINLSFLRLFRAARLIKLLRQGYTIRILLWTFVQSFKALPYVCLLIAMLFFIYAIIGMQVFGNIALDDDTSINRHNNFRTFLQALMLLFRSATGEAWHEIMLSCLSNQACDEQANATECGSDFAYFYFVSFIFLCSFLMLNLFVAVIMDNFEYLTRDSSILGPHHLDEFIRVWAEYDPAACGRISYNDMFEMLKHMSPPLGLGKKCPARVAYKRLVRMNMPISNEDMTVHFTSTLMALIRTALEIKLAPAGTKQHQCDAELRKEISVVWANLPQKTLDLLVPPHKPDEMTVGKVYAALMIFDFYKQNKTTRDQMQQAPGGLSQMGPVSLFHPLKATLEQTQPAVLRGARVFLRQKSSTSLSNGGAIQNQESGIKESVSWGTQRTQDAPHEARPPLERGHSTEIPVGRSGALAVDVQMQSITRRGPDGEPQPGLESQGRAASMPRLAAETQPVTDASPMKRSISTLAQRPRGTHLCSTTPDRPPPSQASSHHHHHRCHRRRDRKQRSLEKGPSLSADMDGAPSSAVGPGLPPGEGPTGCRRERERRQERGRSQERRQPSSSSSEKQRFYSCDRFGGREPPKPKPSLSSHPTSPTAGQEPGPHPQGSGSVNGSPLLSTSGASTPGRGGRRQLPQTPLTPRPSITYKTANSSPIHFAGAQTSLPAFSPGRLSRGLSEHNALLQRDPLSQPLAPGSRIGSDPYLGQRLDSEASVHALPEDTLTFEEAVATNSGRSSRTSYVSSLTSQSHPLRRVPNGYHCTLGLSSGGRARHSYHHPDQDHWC
T1 sequence (Q02410 whole entry): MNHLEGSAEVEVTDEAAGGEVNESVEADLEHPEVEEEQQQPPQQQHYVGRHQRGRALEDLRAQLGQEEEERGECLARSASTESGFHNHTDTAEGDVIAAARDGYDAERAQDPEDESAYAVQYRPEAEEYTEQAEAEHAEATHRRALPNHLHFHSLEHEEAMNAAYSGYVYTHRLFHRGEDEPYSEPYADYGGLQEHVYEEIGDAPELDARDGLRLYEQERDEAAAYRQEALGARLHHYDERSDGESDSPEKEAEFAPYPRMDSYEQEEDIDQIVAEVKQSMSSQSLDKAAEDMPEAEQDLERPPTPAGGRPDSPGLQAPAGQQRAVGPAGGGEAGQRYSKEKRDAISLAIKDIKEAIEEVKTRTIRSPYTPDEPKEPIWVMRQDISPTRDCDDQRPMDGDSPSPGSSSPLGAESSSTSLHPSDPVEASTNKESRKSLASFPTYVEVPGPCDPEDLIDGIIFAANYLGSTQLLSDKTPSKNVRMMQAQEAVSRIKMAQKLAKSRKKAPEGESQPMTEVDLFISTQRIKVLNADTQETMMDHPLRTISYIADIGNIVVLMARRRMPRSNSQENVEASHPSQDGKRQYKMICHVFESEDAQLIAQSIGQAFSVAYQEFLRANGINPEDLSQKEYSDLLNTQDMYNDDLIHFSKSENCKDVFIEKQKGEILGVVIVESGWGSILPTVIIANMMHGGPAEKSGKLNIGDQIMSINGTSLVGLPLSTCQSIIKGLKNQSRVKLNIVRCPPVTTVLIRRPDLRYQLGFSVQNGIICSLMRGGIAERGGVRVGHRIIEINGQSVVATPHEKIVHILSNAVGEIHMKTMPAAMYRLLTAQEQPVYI
T6 sequence (P41143 whole entry): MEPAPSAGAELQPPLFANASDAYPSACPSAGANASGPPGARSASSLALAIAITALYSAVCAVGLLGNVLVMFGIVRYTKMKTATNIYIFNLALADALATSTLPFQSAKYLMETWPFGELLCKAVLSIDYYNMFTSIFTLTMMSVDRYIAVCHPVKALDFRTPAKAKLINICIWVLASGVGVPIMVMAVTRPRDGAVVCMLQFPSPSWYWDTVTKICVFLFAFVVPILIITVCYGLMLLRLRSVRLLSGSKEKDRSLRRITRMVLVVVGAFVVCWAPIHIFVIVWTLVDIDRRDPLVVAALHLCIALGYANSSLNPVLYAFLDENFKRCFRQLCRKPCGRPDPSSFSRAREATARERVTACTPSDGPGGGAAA
T7 sequence (P41145 whole entry): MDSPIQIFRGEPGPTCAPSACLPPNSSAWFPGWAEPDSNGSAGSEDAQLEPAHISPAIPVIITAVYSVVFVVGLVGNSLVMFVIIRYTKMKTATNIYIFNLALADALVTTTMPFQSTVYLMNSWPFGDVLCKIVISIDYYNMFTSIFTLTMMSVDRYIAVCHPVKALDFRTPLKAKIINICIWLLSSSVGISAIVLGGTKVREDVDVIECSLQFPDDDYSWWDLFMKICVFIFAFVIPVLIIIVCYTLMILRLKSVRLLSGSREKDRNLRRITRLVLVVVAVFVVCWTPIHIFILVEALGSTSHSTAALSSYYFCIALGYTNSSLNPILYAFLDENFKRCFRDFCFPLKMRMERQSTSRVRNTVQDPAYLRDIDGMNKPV
Chain of CAAX prenyl protease 1 (P47154 whole entry): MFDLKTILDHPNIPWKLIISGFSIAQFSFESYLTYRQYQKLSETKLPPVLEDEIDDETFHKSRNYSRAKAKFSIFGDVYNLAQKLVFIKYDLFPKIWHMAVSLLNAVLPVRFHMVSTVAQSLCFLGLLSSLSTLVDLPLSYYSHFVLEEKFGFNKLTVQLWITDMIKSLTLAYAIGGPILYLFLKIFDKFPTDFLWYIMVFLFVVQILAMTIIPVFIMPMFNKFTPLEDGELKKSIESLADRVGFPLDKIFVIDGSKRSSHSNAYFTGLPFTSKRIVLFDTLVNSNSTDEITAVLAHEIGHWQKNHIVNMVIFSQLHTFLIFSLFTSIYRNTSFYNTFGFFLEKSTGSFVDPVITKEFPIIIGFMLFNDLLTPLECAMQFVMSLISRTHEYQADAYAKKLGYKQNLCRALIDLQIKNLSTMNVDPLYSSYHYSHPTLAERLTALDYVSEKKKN
Chain of Cytochrome P450 3A4 (P08684 whole entry): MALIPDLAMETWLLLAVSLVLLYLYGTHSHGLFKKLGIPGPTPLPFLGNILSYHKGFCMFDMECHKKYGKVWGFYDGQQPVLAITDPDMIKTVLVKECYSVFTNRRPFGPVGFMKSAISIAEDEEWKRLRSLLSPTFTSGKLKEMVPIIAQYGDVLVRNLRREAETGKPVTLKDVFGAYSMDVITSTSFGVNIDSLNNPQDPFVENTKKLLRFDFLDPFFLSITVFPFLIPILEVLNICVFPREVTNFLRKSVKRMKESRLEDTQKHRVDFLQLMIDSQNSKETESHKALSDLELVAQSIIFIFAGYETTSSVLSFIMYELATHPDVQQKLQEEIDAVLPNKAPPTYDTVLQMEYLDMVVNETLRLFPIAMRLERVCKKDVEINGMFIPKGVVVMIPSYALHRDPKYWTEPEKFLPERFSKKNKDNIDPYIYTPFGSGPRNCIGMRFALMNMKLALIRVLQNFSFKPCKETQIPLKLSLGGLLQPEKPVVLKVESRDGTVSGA

COc1cc(NC(=O)c2cccc(F)c2)ccc1NC(=O)c1cc2ccccc2o1
IC50 [1]: > 50 µM (inactive)
IC50 [2]: 6.19 µM (active)
CC50 [3]: > 50 µM (active)

COC(=O)Cc1c(C)c2ccc(OCc3nn[nH]n3)c(C)c2oc1=O
AC50 (Trypsin): 21.3 µM (active)
AC50 (CAAX prenyl protease 1): 12.6 µM (active)
AC50 (CAAX prenyl protease 2 [4]): 24.6 µM (active)
AC50 (CAAX prenyl protease 2 [5]): 29.6 µM (active)

COc1ccccc1OCCOc1ccc(/C=C2/C(=N)N3OC(C)=CC3=NC2=O)cc1OC
AC50 (Cytochrome P450 2C19): 2 µM (inconclusive)
IC50 [1]: > 50 µM (inactive)
AC50 (Cytochrome P450 2D6): 6.31 µM (inconclusive)
IC50 [2]: 0.212 µM (active)

CCOc1cc(C2C(C#N)=C(N)OC(C)=C2C(C)=O)cc(Br)c1O (stereo not given)
AC50 (Keap1/Nrf2): > 52 µM (inactive)
EC50 [6]: 12.3 µM (inconclusive)
EC50 [7]: 12.3 µM (active)

COc1ccc(-c2cc(C(=O)Nc3cnn(Cc4ccccc4C)c3)no2)cc1OC
AC50 (Cytochrome P450 2C19): 25.1 µM (inconclusive)
AC50 (Cytochrome P450 3A4): inconclusive

CC(OC(=O)c1cc2c(ccc3ccccc32)oc1=O)c1nc2ccccc2s1 (stereo not given)
EC50 (Beta-galactosidase): > 31.5 µM (inactive)
IC50 [8]: > 32 µM (inactive)
EC50 (Mu-type opioid receptor): > 32 µM (inactive)
IC50 [9]: > 32 µM
IC50 (H9c2): > 79 µM (inactive)
IC50 [10]: 10.5 µM (active)
EC50 [11]: > 32 µM (inactive)

O=C(Cn1c2ccccc2c(=O)c2ccccc21)Nc1ccccc1F
AC50 (CAAX prenyl protease 1): 6.04 µM (active)
AC50 (CAAX prenyl protease 2 [5]): 0.345 µM (active)

Cc1c(C(=O)Nc2ccc(F)cc2)cn2c(nc3ccccc32)c1C#N
IC50 (SUMO-activating enzyme): 41.7 µM (active)

CCOC(=O)Cn1c2ccccc2c2nc3ccccc3nc21
EC50 [12]: 107 µM (active)
IC50 (SUMO-activating enzyme): 29.6 µM (active)

O=C(Nc1ccc(N2CCN(C(=O)c3ccco3)CC2)c(Cl)c1)c1cccs1
CC50 [13]: > 40 µM (active)
CC50 [14]: > 20 µM (active)

O=C(NNC1=Nc2ccccc2SC1)c1ccc(Cl)cc1
EC50 (Beta-galactosidase): > 31.5 µM (inactive)
IC50 [8]: > 32 µM (inactive)
EC50 (Mu-type opioid receptor): > 32 µM (inactive)
IC50 [9]: > 32 µM
EC50 [15]: 18.4 µM (active)
EC50 [16]: 11 µM (active)
EC50 [17]: 8.56 µM (active)
IC50 [10]: 10.5 µM (active)
EC50 [11]: > 32 µM (inactive)

CN1CCN(c2ncc3nc(-c4ccc(Cl)cc4)c(=O)n(C)c3n2)CC1
AC50 (Cytochrome P450 3A4): inconclusive

O=C(N/N=C/c1ccc(O)cc1)c1ccc(-c2csc(Nc3ccc(Cl)cc3)n2)cc1
IC50 [18]: > 100 µM (inactive)
IC50 [19]: 24.1 µM (active)
IC50 [20]: > 100 µM (inactive)
IC50 [21]: > 100 µM (inactive)
IC50 [22]: > 100 µM (inactive)
